According to patent US11723908B2, “Quinazoline derivatives as antitumor agents” (SUZHOU ZANRONG PHARMA LIMITED, priority 2018, dated 2023):
Where two headings read alike, the source gives them in different places.

Key:
[1] = target: HER2 (Homo sapiens (Human), UniProt P04626); assay: BT474 cellular assay (HER2 inhibition), phospho-HER2 ELISA; assay type: cell-based; conditions: inhibition of phosphor HER2, BT474 cells, 2 hours compound incubation
Protocol: Assay a) BT474 Cellular Assay (HER2 Inhibition) Inhibition of phosphor HER2 was determined by enzyme-linked immunosorbent assay (ELISA) in BT474 cells. BT474 cell line was purchased from [NT] number HTB-20). Human Phospho-ErbB2 ELISA kit was purchased from R&D systems (catalog number DYC1768). Day 1: When the cells reach 70-90% confluence, cells were trypsinized and re-suspended. 5000 cells per well were seeded to a 384-well plate. The plate was incubated at 37° C. with 5% CO2 for 24 hours. ELISA plate was coated with 2 μg/ml capture antibody, which was incubated at 4° C. overnight. Day 2: 25 nl compounds was dosed by Echo from source plate and the 384-well plate was incubated at 37° C. for 2 hours. 30 μl lysis buffer was added to each well and the 384-well plate was shaken softly at 4° C. for 30 minutes. The ELISA plate was washed, blocked and incubated at room temperature for 1-2 hours. The blocked ELISA plate was washed and 20 μl cell lysate was transferred from the 384-well plate to the ELISA plate, which was incubated overnight at 4° C. Day 3: The ELISA plate was washed 3 times. 25 μl/well detection antibody was added (diluted 1 by 2000 in 1% BSA in PBS). After 2 hours of incubation with detection antibody, the ELISA plate was washed 3 times, 25 μl/well TMB substrate was added and incubated for 10-15 minutes before stop solution was added. Absorbance at 450 nm and 570 nm was read within 30 minutes after adding the stop solution. […] The IC50 results are provided in Table 1 for some exemplary compounds.

[2] = target: wt-EGFR (Homo sapiens (Human), UniProt P00533); assay: NCI H838 cellular assay (wt-EGFR inhibition), phospho-EGFR ELISA; assay type: cell-based
Protocol: Assay b) NCI H838 Cellular Assay (Wt-EGFR Inhibition) Inhibition of phosphor wt-EGFR was determined by enzyme-linked immunosorbent assay (ELISA) in NCI H838 cells (ATCC, catalog number CRL-5844). Human Phospho-EGFR DuoSet IC ELISA kit was purchased from R&D systems (catalog number DYC1095). Day 1: When the cells reach 70-90% confluence, cells were trypsinized and re-suspended. 5000 cells per well were seeded to a 384-well plate. The plate was incubated at 37° C. with 5% CO2 for 24 hours. Day 2: Cell culture medium was replaced with 40 μL FBS-Free RPMI1640. After 2 hours of starvation, the 384-well plate was dosed with 40 nL of compounds by Echo from source plate and the 384-well plate was incubated at 37° C. with 5% CO2 for 2 hours. After 2 hours of incubation with compounds, EGF (final concentration at 100 ng/ml) was added to the plate which was incubated at 37° C. with 5% CO2 for 5-10 minutes. Medium was discarded from the plate and 30 μl/well lysis buffer was added to the plate which was incubated at 4° C. for 10 minutes. The cell lysates can be stored at −80° C. in cell plates but must be thawed at room temperature for at least 30 minutes prior to use and continuing the assay. ELISA plate was coated by diluting capture antibody to 4 μg/ml with PBS, and 25 μl/well was dispensed to 384 well UltraCruz® ELISA Plate, which was incubated at 4° C. overnight. Day 3: After the plates were washed three times with 100 μl/well of wash buffer, the plates were blocked by adding 75 μl of Block Buffer to each well and incubated at room temperature for 3 hours. After the plates were washed three times with 100 μl/well of wash buffer, 20 μl cell lysate was transferred to the blocked ELISA plate which was incubated for 2 hours at room temperature. After the plates were washed three times with 100 μl/well of wash buffer, 25 μl/well detection antibody (dilute 1 in 900 in assay buffer) was added the plate which was incubated for 2 hours, protected from light. After washed three times, 25 μl/well TMB substrate was added to the ELISA plate which was incubated for about 10-15 min, protected from light before addition of 25 μl/well stop solution. Absorbance was read at 450 nm and 570 nm within 30 minutes.

[3] = inhibition of phosphor wt-EGFR, NCI H838 cells, EGF 100 ng/ml

HER2, sequence (P04626 23-1255): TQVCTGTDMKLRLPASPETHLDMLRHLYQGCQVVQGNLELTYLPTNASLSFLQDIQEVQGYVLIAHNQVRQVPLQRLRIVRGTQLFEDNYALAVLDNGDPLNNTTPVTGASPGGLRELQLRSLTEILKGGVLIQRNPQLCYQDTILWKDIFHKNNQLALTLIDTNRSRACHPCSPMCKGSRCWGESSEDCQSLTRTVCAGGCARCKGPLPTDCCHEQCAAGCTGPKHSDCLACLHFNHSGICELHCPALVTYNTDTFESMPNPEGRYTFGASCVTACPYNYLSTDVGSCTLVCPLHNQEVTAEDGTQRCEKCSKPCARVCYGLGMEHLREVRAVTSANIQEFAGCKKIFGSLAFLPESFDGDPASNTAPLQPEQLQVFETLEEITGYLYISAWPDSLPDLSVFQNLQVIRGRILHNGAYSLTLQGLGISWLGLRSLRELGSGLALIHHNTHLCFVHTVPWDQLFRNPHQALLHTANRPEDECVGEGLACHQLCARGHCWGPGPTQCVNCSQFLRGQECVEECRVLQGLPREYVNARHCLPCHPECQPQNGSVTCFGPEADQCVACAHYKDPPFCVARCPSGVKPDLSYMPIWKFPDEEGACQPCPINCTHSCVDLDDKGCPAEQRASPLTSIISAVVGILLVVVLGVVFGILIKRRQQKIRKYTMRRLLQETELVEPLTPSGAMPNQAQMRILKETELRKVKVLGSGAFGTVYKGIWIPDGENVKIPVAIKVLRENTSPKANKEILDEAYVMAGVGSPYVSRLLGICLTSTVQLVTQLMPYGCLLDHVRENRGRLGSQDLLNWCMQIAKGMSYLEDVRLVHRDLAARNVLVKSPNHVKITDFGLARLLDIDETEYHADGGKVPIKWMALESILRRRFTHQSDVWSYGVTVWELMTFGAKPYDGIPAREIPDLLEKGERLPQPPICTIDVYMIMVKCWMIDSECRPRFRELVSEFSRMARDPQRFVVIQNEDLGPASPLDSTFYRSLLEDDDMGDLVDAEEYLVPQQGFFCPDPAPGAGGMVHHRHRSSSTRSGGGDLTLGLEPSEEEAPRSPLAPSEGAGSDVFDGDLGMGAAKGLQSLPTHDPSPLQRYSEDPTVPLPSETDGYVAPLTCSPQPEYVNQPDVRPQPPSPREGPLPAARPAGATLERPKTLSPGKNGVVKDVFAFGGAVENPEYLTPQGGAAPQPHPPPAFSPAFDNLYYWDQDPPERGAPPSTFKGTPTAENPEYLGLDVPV
wt-EGFR, sequence (P00533 25-1210): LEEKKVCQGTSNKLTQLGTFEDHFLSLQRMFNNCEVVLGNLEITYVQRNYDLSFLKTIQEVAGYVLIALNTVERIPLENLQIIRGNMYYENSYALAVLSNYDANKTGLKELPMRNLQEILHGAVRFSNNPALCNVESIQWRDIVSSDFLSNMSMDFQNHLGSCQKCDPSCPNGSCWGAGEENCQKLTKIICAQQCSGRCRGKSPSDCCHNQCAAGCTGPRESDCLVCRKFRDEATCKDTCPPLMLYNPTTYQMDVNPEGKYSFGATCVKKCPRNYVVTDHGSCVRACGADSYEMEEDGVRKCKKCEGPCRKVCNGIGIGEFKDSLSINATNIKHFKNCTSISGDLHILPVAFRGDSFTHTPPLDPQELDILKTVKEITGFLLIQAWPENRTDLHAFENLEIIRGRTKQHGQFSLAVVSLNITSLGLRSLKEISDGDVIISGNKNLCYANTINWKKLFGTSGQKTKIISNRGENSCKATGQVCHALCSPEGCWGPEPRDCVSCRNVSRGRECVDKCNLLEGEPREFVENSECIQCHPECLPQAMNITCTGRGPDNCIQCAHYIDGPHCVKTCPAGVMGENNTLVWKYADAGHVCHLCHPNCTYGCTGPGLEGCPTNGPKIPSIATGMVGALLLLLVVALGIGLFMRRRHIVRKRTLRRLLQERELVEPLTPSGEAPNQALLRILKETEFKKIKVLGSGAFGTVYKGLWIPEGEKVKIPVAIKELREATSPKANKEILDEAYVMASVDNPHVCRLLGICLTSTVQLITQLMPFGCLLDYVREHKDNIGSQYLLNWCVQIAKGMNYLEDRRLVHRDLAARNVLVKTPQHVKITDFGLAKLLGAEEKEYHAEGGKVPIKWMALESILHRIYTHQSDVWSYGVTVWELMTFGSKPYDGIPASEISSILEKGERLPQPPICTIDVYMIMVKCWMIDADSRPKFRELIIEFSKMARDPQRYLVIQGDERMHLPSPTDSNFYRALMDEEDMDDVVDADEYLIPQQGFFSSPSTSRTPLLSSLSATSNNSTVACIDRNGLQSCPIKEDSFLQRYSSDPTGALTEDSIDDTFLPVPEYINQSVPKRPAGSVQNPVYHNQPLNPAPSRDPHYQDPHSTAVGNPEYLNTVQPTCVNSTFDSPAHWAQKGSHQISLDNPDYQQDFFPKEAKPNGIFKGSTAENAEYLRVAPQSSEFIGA

**Q.** `COc1ccc2ncnc(Nc3ccc(Oc4cc5ncnn5cn4)c(C)c3)c2c1N1CC2(C[C@H](F)CN2C)C1` (single isomer, unassigned) [Example 43] was tested. Which IC50 [1] did it give?
**A.** 24 nM

**Q.** And the IC50 [2, 3]?
**A.** 2030 nM

**Q.** With `COc1ccc2ncnc(Nc3ccc(Oc4cc5ncnn5cn4)c(C)c3)c2c1N1CC2(C[C@@H](F)CN2C)C1` (single isomer, unassigned) [Example 44] as the compound, how does the IC50 [1] read?
**A.** 5 nM

**Q.** What about the IC50 [2, 3] of the same compound?
**A.** 234 nM

**Q.** How did the IC50 [1] turn out when `COc1ccc2ncnc(Nc3ccc(Oc4cc5ncnn5cn4)c(C)c3)c2c1N1CC2(C[C@H](F)CCN2C)C1` (single isomer, unassigned) [Example 47] was run?
**A.** 4.1 nM

**Q.** And the IC50 [2, 3]?
**A.** 4540 nM

**Q.** `COc1ccc2ncnc(Nc3ccc(Oc4cc5ncnn5cn4)c(C)c3)c2c1N1CC2(C[C@@H](F)CCN2C)C1` (single isomer, unassigned) [Example 48] was tested. Which IC50 [1] did it give?
**A.** 6.7 nM

**Q.** And the IC50 [2, 3]?
**A.** 364 nM

**Q.** `COc1ccc2ncnc(Nc3ccc(Oc4cc5ncnn5cn4)c(C)c3)c2c1N1CC(N(C)C)C1` [Example 1, N-(4-([1,2,4]triazolo[1,5-c]pyrimidin-7-yloxy)-3-methylphenyl)-5-(3-(dimethylamino)azetidin-1-yl)-6-methoxyquinazolin-4-amine] was tested. Which IC50 [1] did it give?
**A.** 9.2 nM

**Q.** What about the IC50 [2, 3] of the same compound?
**A.** 2800 nM

**Q.** For `COc1ccc2ncnc(Nc3ccc(Oc4cc5ncnn5cn4)c(C)c3)c2c1N1CC[C@H](N(C)C)C1` [Example 3, (S)—N-(4-([1,2,4]triazolo[1,5-c]pyrimidin-7-yloxy)-3-methylphenyl)-5-(3-(dimethylamino)pyrrolidin-1-yl)-6-methoxyquinazolin-4-amine], which IC50 [1] is on record?
**A.** 31 nM

**Q.** What about the IC50 [2, 3] of the same compound?
**A.** 330 nM

**Q.** How did the IC50 [1] turn out when `COc1ccc2ncnc(Nc3ccc(Oc4cc5ncnn5cn4)c(C)c3)c2c1N1CCOCC1` [Example 4, N-(4-([1,2,4]triazolo[1,5-c]pyrimidin-7-yloxy)-3-methylphenyl)-6-methoxy-5-morpholinoquinazolin-4-amine] was run?
**A.** 105 nM

**Q.** And the IC50 [2, 3]?
**A.** > 10000 nM

**Q.** With `CCOc1ccc2ncnc(Nc3ccc(Oc4cc5ncnn5cn4)c(C)c3)c2c1N1CC(N(C)C)C1` [Example 11, N-(4-([1,2,4]triazolo[1,5-c]pyrimidin-7-yloxy)-3-methylphenyl)-5-(3-(dimethylamino)azetidin-1-yl)-6-ethoxyquinazolin-4-amine] as the compound, how does the IC50 [1] read?
**A.** 13 nM

**Q.** And the IC50 [2, 3]?
**A.** 6700 nM

**Q.** How did the IC50 [1] turn out when `Cc1cc(Nc2ncnc3ccc(OCCF)c(N4CC(N(C)C)C4)c23)ccc1Oc1cc2ncnn2cn1` [Example 12, N-(4-([1,2,4]triazolo[1,5-c]pyrimidin-7-yloxy)-3-methylphenyl)-5-(3-(dimethylamino)azetidin-1-yl)-6-(2-fluoroethoxy)quinazolin-4-amine] was run?
**A.** 26 nM

**Q.** What about the IC50 [2, 3] of the same compound?
**A.** 180 nM

**Q.** Which results are given for `COc1ccc2ncnc(Nc3ccc(Oc4cc5ncnn5cn4)c(C)c3)c2c1O[C@H]1CCN(C)CC1(F)F` [Example 32, (S)—N-(4-([1,2,4]triazolo[1,5-c]pyrimidin-7-yloxy)-3-methylphenyl)-5-((3,3-difluoro-1-methylpiperidin-4-yl)oxy)-6-methoxyquinazolin-4-amine]?
**A.** IC50 [1]: 16 nM; IC50 [2]: 4800 nM

**Q.** Which results are given for `COc1ccc2ncnc(Nc3ccc(Oc4cc5ncnn5cn4)c(Cl)c3)c2c1O[C@H]1CCN(C)CC1(F)F` [Example 34, (S)—N-(4-([1,2,4]triazolo[1,5-c]pyrimidin-7-yloxy)-3-chlorophenyl)-5-((3,3-difluoro-1-methylpiperidin-4-yl)oxy)-6-methoxyquinazolin-4-amine]?
**A.** IC50 [1]: 18 nM; IC50 [2, 3]: 6300 nM

**Q.** Which IC50 [1] does the source give for `[2H]C([2H])([2H])N1CCC(Oc2c(OC)ccc3ncnc(Nc4ccc(Oc5cc6ncnn6cn5)c(C)c4)c23)C(F)(F)C1` (stereo not shown) [Example 35, N-(4-([1,2,4]triazolo[1,5-c]pyrimidin-7-yloxy)-3-methylphenyl)-5-((3,3-difluoro-1-(methyl-d3)piperidin-4-yl)oxy)-6-methoxyquinazolin-4-amine] here?
**A.** 16 nM

**Q.** And the IC50 [2]?
**A.** 1280 nM

**Q.** With `[2H]C([2H])([2H])Oc1ccc2ncnc(Nc3ccc(Oc4cc5ncnn5cn4)c(C)c3)c2c1O[C@H]1CCN(C)CC1(F)F` [Example 37, (S)—N-(4-([1,2,4]triazolo[1,5-c]pyrimidin-7-yloxy)-3-methylphenyl)-5-((3,3-difluoro-1-methylpiperidin-4-yl)oxy)-6-(methoxy-d3)quinazolin-4-amine] as the compound, how does the IC50 [1] read?
**A.** 12 nM

**Q.** What about the IC50 [2] of the same compound?
**A.** > 10000 nM

**Q.** Which IC50 [1] does the source give for `COc1ccc2ncnc(Nc3ccc(Oc4cc5ncnn5cn4)c(C)c3)c2c1N1CC2(CN(C)CCO2)C1` [Example 38, N-(4-([1,2,4]triazolo[1,5-c]pyrimidin-7-yloxy)-3-methylphenyl)-6-methoxy-5-(8-methyl-5-oxa-2,8-diazaspiro[3.5]nonan-2-yl)quinazolin-4-amine] here?
**A.** 37 nM

**Q.** And the IC50 [2, 3]?
**A.** > 10000 nM

**Q.** What does the source list for `COc1ccc2ncnc(Nc3ccc(Oc4cc5ncnn5cn4)c(C)c3)c2c1N1C[C@@H](N(C)C)[C@@H](F)C1` [Example 39, N-(4-([1,2,4]triazolo[1,5-c]pyrimidin-7-yloxy)-3-methylphenyl)-5-((3R,4S)-3-(dimethylamino)-4-fluoropyrrolidin-1-yl)-6-methoxyquinazolin-4-amine]?
**A.** IC50 [1]: 94 nM; IC50 [2, 3]: > 10000 nM

**Q.** Which IC50 [1] does the source give for `COc1ccc2ncnc(Nc3ccc(Oc4cc5ncnn5cn4)c(C)c3)c2c1N1C[C@@H](F)[C@H](N(C)C)C1` [Example 40, N-(4-([1,2,4]triazolo[1,5-c]pyrimidin-7-yloxy)-3-methylphenyl)-5-((3R,4R)-3-(dimethylamino)-4-fluoropyrrolidin-1-yl)-6-methoxyquinazolin-4-amine] here?
**A.** 63 nM

**Q.** And the IC50 [2, 3]?
**A.** > 10000 nM

**Q.** With `COc1ccc2ncnc(Nc3ccc(Oc4cc5ncnn5cn4)c(C)c3)c2c1N1CC2(COCCN2C)C1` [Example 41, N-(4-([1,2,4]triazolo[1,5-c]pyrimidin-7-yloxy)-3-methylphenyl)-6-methoxy-5-(5-methyl-8-oxa-2,5-diazaspiro[3.5]nonan-2-yl)quinazolin-4-amine] as the compound, how does the IC50 [1] read?
**A.** 35 nM

**Q.** What about the IC50 [2, 3] of the same compound?
**A.** 2260 nM

**Q.** Which IC50 [1] does the source give for `COc1ccc2ncnc(Nc3ccc(Oc4cc5ncnn5cn4)c(C)c3)c2c1N1CC2OCCN(C)C2C1` (stereo not shown) [Example 42, N-(4-([1,2,4]triazolo[1,5-c]pyrimidin-7-yloxy)-3-methylphenyl)-6-methoxy-5-(4-methylhexahydropyrrolo[3,4-b][1,4]oxazin-6(2H)-yl)quinazolin-4-amine] here?
**A.** 58 nM

**Q.** What about the IC50 [2, 3] of the same compound?
**A.** > 10000 nM

**Q.** How did the IC50 [1] turn out when `COc1ccc2ncnc(Nc3ccc(Oc4cc5ncnn5cn4)c(C)c3)c2c1N1C[C@H]2[C@@H]1CCN2C` [Example 45, N-(4-([1,2,4]triazolo[1,5-c]pyrimidin-7-yloxy)-3-methylphenyl)-6-methoxy-5-((1S,5S)-2-methyl-2,6-diazabicyclo[3.2.0]heptan-6-yl)quinazolin-4-amine] was run?
**A.** 2.5 nM

**Q.** What about the IC50 [2, 3] of the same compound?
**A.** 6600 nM

**Q.** How did the IC50 [1] turn out when `Cc1cc(Nc2ncnc3ccc(NC(=O)/C=C/[C@H]4CCCN4C)c(O[C@@H]4CCN(C)CC4(F)F)c23)ccc1Oc1cc2ncnn2cn1` [Example 95, (E)-N-(4-((4-([1,2,4]triazolo[1,5-c]pyrimidin-7-yloxy)-3-methylphenyl)amino)-5-(((R)-3,3-difluoro-1-methylpiperidin-4-yl)oxy)quinazolin-6-yl)-3-((R)-1-methylpyrrolidin-2-yl)acrylamide] was run?
**A.** 48 nM

**Q.** How did the IC50 [1] turn out when `COc1cc2ncnc(Nc3ccc(Oc4cc5ncnn5cn4)c(C)c3)c2c(O[C@@H]2CCN(C)CC2(F)F)c1OC` [Example 99, (R)—N-(4-([1,2,4]triazolo[1,5-c]pyrimidin-7-yloxy)-3-methylphenyl)-5-((3,3-difluoro-1-methylpiperidin-4-yl)oxy)-6,7-dimethoxyquinazolin-4-amine] was run?
**A.** 170 nM
